# In article PMC9945734 (BMC Medicine, 2023):
# Test system: PC-3-KQ and PC-3-KR cells
# Test: RNA-sequencing and differential gene expression
# Assay type: cell-based, human
# Conditions: RNA-Seq, PC-3-KQ cells
smiles,measurement,value
CC(=O)Oc1ccccc1C(=O)Nc1ncc([N+](=O)[O-])s1 [Nitazoxanide],IL21R Change (KQ-Control vs KQ-NTZ),DOWN
same,IL21R logFC (KQ-Control vs KQ-NTZ),-0.8899
same,INHBA Change (KQ-Control vs KQ-NTZ),DOWN
same,INHBA logFC (KQ-Control vs KQ-NTZ),-0.6293
same,INHBB Change (KQ-Control vs KQ-NTZ),DOWN
same,INHBB logFC (KQ-Control vs KQ-NTZ),-0.6733
same,KIAA1755 Change (KQ-Control vs KQ-NTZ),DOWN
same,KIAA1755 logFC (KQ-Control vs KQ-NTZ),-0.9388
same,KLK9 Change (KQ-Control vs KQ-NTZ),DOWN
same,KLK9 logFC (KQ-Control vs KQ-NTZ),-1.8809
same,LGALS12 Change (KQ-Control vs KQ-NTZ),DOWN
same,LGALS12 logFC (KQ-Control vs KQ-NTZ),-2.2497
same,LILRB3 Change (KQ-Control vs KQ-NTZ),DOWN
same,LILRB3 logFC (KQ-Control vs KQ-NTZ),-0.8729
same,LOC105373989 Change (KQ-Control vs KQ-NTZ),DOWN
same,LOC105373989 logFC (KQ-Control vs KQ-NTZ),-0.7405
same,LOC105377805 Change (KQ-Control vs KQ-NTZ),DOWN
same,LOC105377805 logFC (KQ-Control vs KQ-NTZ),-0.9959
same,LOC107987158 Change (KQ-Control vs KQ-NTZ),DOWN
same,LOC107987158 logFC (KQ-Control vs KQ-NTZ),-1.1348
same,LONRF2 Change (KQ-Control vs KQ-NTZ),DOWN
same,LONRF2 logFC (KQ-Control vs KQ-NTZ),-0.9823
same,LTB Change (KQ-Control vs KQ-NTZ),DOWN
same,LTB logFC (KQ-Control vs KQ-NTZ),-0.7686
same,LY6K Change (KQ-Control vs KQ-NTZ),DOWN
same,LY6K logFC (KQ-Control vs KQ-NTZ),-0.6327
same,MAP7D3 Change (KQ-Control vs KQ-NTZ),DOWN
same,MAP7D3 logFC (KQ-Control vs KQ-NTZ),-0.8315
same,MCM4 Change (KQ-Control vs KQ-NTZ),DOWN
same,MCM4 logFC (KQ-Control vs KQ-NTZ),-0.8431
same,MEOX1 Change (KQ-Control vs KQ-NTZ),DOWN
same,MEOX1 logFC (KQ-Control vs KQ-NTZ),-0.6507
same,MMP9 Change (KQ-Control vs KQ-NTZ),DOWN
same,MMP9 logFC (KQ-Control vs KQ-NTZ),-0.7252
same,MNX1 Change (KQ-Control vs KQ-NTZ),DOWN
same,MNX1 logFC (KQ-Control vs KQ-NTZ),-0.604
same,MSMP Change (KQ-Control vs KQ-NTZ),DOWN
same,MSMP logFC (KQ-Control vs KQ-NTZ),-1.1495
same,MYBL2 Change (KQ-Control vs KQ-NTZ),DOWN
same,MYBL2 logFC (KQ-Control vs KQ-NTZ),-0.7249
same,MYH7B Change (KQ-Control vs KQ-NTZ),DOWN
same,MYH7B logFC (KQ-Control vs KQ-NTZ),-0.9453
same,NKD1 Change (KQ-Control vs KQ-NTZ),DOWN
same,NKD1 logFC (KQ-Control vs KQ-NTZ),-0.7476
same,NRK Change (KQ-Control vs KQ-NTZ),DOWN
same,NRK logFC (KQ-Control vs KQ-NTZ),-1.1538
same,NTF4 Change (KQ-Control vs KQ-NTZ),DOWN
same,NTF4 logFC (KQ-Control vs KQ-NTZ),-0.9396
same,PADI3 Change (KQ-Control vs KQ-NTZ),DOWN
same,PADI3 logFC (KQ-Control vs KQ-NTZ),-0.9445
same,PCDH18 Change (KQ-Control vs KQ-NTZ),DOWN
same,PCDH18 logFC (KQ-Control vs KQ-NTZ),-1.1702
same,PEG10 Change (KQ-Control vs KQ-NTZ),DOWN
same,PEG10 logFC (KQ-Control vs KQ-NTZ),-0.7533
same,PFKFB1 Change (KQ-Control vs KQ-NTZ),DOWN
same,PFKFB1 logFC (KQ-Control vs KQ-NTZ),-0.9123
same,PGAM4 Change (KQ-Control vs KQ-NTZ),DOWN
same,PGAM4 logFC (KQ-Control vs KQ-NTZ),-0.6254
same,PHACTR3 Change (KQ-Control vs KQ-NTZ),DOWN
same,PHACTR3 logFC (KQ-Control vs KQ-NTZ),-1.8948
same,PHOSPHO2 Change (KQ-Control vs KQ-NTZ),DOWN
same,PHOSPHO2 logFC (KQ-Control vs KQ-NTZ),-0.6401
same,PIANP Change (KQ-Control vs KQ-NTZ),DOWN
same,PIANP logFC (KQ-Control vs KQ-NTZ),-1.6896
same,PRKDC Change (KQ-Control vs KQ-NTZ),DOWN
same,PRKDC logFC (KQ-Control vs KQ-NTZ),-0.6126
same,PRR16 Change (KQ-Control vs KQ-NTZ),DOWN
same,PRR16 logFC (KQ-Control vs KQ-NTZ),-0.5996
same,PRR29 Change (KQ-Control vs KQ-NTZ),DOWN
same,PRR29 logFC (KQ-Control vs KQ-NTZ),-0.8108
same,PRRT4 Change (KQ-Control vs KQ-NTZ),DOWN
same,PRRT4 logFC (KQ-Control vs KQ-NTZ),-0.6032
same,RBL1 Change (KQ-Control vs KQ-NTZ),DOWN
same,RBL1 logFC (KQ-Control vs KQ-NTZ),-0.6965
same,RPP25 Change (KQ-Control vs KQ-NTZ),DOWN
same,RPP25 logFC (KQ-Control vs KQ-NTZ),-0.6095
same,SCG2 Change (KQ-Control vs KQ-NTZ),DOWN
same,SCG2 logFC (KQ-Control vs KQ-NTZ),-0.6461
same,SERPINA3 Change (KQ-Control vs KQ-NTZ),DOWN
same,SERPINA3 logFC (KQ-Control vs KQ-NTZ),-0.7667
